Laboratory results published in patent US8987268B2, “Pyrrolopyridazine JAK3 inhibitors and their use for the treatment of inflammatory and autoimmune diseases” (Bristol-Myers Squibb Company, priority 2011, dated 2015).

Tests used:
GST-JAK1 enzyme = GST-JAK1 enzyme (Homo sapiens (Human), UniProt P23458); assay: JAK1 Kinase Assay Protocol; format: biochemical; settings: JAK1 kinase inhibition; read-out: LLE_JAK1 (IC50)
Experimental: JAK1 Kinase Assay Protocol
(§1) The assay reactions were performed in U-bottom 384-well plates. […] The reaction was initiated by the combination of GST-JAK1 enzyme with substrates and test compounds. The reactions were incubated at room temperature for 3 hours and terminated by adding 60 μl of 35 mM EDTA to each sample. Each reaction mixture was analyzed on the Caliper LabChip 3000 (Caliper, Hopkinton, Mass.) by electrophoretic separation of the fluorescent substrate and phosphorylated product. […] Compounds were dissolved at 10 mM in dimethylsulfoxide (DMSO) and evaluated at eleven concentrations. IC50 values were derived by non-linear regression analysis.

GST-JAK3 enzyme = GST-JAK3 enzyme (Homo sapiens (Human), UniProt P52333); assay: JAK3 Kinase Assay Protocol (Caliper); format: biochemical; settings: JAK3 kinase inhibition; read-out: LLE_JAK3_FB (IC50)
GST-JAK3 enzyme, sequence (P52333 whole entry): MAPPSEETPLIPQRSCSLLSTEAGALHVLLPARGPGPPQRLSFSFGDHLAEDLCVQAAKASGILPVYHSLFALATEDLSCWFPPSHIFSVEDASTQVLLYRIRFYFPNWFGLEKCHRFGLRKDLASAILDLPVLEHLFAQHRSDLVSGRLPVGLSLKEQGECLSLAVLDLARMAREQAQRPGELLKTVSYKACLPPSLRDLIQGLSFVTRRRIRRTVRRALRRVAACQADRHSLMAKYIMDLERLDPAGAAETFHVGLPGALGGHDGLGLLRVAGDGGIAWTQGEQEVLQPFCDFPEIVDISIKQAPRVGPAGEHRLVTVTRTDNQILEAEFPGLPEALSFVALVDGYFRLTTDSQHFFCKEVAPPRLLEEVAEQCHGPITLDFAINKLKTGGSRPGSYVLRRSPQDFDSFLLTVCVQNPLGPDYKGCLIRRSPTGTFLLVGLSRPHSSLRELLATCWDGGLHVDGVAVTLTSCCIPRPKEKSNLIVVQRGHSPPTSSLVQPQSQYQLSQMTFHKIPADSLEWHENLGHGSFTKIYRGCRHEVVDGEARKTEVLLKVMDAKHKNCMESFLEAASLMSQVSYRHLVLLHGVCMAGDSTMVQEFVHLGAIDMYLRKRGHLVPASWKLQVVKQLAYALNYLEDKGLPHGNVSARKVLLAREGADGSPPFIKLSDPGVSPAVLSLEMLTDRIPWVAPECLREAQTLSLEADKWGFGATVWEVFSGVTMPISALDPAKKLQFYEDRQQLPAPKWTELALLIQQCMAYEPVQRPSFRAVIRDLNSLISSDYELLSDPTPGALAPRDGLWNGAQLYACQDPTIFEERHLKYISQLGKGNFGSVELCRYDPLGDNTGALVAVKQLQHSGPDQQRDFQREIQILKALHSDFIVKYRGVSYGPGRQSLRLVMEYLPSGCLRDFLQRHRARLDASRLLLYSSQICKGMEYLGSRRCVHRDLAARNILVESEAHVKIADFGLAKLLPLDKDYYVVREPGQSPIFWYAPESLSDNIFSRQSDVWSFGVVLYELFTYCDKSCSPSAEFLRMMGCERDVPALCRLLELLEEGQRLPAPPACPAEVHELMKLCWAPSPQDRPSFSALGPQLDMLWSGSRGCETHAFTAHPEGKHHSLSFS
Experimental: JAK3 Kinase Assay Protocol (Caliper)
as §1, with “GST-JAK3” for “GST-JAK1”

GST-JAK1 enzyme, sequence (P23458 whole entry): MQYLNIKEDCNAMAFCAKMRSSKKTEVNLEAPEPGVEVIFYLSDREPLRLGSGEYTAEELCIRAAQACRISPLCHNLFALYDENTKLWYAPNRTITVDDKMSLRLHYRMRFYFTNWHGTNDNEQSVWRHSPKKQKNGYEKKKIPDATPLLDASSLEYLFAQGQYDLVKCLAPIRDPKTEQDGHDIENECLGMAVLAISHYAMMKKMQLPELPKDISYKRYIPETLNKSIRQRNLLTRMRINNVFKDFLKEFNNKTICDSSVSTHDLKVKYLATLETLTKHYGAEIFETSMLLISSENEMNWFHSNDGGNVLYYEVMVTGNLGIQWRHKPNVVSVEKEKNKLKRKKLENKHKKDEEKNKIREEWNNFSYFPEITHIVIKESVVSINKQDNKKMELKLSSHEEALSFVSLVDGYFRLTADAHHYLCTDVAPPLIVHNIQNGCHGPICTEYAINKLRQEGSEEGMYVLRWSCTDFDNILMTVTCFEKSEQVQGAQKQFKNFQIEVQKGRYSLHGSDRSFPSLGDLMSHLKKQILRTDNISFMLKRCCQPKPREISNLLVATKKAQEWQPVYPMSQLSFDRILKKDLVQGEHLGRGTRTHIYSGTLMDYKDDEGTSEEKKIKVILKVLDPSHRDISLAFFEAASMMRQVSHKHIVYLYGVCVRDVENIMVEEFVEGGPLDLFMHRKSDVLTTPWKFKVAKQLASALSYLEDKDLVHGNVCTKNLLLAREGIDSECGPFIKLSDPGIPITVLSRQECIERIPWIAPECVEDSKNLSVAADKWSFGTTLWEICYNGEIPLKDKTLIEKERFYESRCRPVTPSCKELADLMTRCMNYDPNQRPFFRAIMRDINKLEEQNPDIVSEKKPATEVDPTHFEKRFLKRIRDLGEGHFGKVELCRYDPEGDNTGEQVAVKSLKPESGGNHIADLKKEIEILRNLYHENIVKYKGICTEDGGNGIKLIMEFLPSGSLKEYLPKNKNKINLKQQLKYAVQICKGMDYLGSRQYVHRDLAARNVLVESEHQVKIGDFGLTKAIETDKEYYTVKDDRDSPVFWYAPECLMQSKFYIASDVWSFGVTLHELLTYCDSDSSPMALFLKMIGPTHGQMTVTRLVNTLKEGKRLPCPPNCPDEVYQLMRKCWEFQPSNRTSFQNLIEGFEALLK

Row | IC50 (GST-JAK1 enzyme) [nM] | IC50 (GST-JAK3 enzyme) [nM] | Compound
1 | 0.7 | 0.2 | CC1(C)CN(c2ccc(C#N)cn2)CC[C@H]1Nc1c(C(N)=O)cnn2cc(N3CC[C@@H](O)C3=O)cc12 [Example 105, 4-((R)-1-(5-cyanopyridin-2-yl)-3,3-dimethylpiperidin-4-ylamino)-6-((R)-3-hydroxy-2-oxopyrrolidin-1-yl)pyrrolo[1,2-b]pyridazine-3-carboxamide]
2 | 1.3 | 0.4 | C[C@@H]1[C@H]2CN(S(C)(=O)=O)C[C@H]2C[C@H]1Nc1c(C(N)=O)cnn2cc(-c3nnn(C)n3)cc12 [Example 67, 4-(((3aS,4R,5R,6aS)-4-methyl-2-(methylsulfonyl)octahydrocyclopenta[c]pyrrol-5-yl)amino)-6-(2-methyl-2H-tetrazol-5-yl)pyrrolo[1,2-b]pyridazine-3-carboxamide]
3 | 120 | 70 | NC(=O)c1cnn2cc(-c3cncc(F)c3)cc2c1NC1CCOCC1 [Example 29, 6-(5-fluoro-3-pyridinyl)-4-(tetrahydro-2H-pyran-4-ylamino)pyrrolo[1,2-b]pyridazine-3-carboxamide]
4 | 1.9 | 1.5 | CC[C@H]1CN(c2ccc(C#N)cn2)C[C@H]1Nc1c(C(N)=O)cnn2cc(-c3cnn(C)c3)cc12 [Example 175, 4-((3S,4S)-1-(5-cyanopyridin-2-yl)-4-ethylpyrrolidin-3-ylamino)-6-(1-methyl-1H-pyrazol-4-yl)pyrrolo[1,2-b]pyridazine-3-carboxamide]
5 | 0.8 | 0.4 | CC[C@H]1CN(c2ccc(C#N)cn2)C[C@H]1Nc1c(C(N)=O)cnn2cc(-c3ccc(=O)n(C)c3)cc12 [Example 173, 4-((3S,4S)-1-(5-cyanopyridin-2-yl)-4-ethylpyrrolidin-3-ylamino)-6-(1-methyl-6-oxo-1,6-dihydropyridin-3-yl)pyrrolo[1,2-b]pyridazine-3-carboxamide]
6 | 40.3 | 15.1 | CC1(F)COCC1Nc1c(C(N)=O)cnn2cc(N3CCCC3=O)cc12 (stereo not drawn) [Example 40, 4-(4-fluoro-4-methyltetrahydrofuran-3-ylamino)-6-(2-oxopyrrolidin-1-yl)pyrrolo[1,2-b]pyridazine-3-carboxamide]
7 | 3.6 | 1 | C[C@@H]1[C@H]2CN(C(=O)C(C)(C)O)C[C@H]2C[C@H]1Nc1c(C(N)=O)cnn2cc(-c3cnc(N)nc3)cc12 [Example 62, 6-(2-amino-5-pyrimidinyl)-4-(((3aS,4R,5R,6aS)-2-(2-hydroxy-2-methylpropanoyl)-4-methyloctahydrocyclopenta[c]pyrrol-5-yl)amino)pyrrolo[1,2-b]pyridazine-3-carboxamide]
8 | 4.4 | 0.9 | COc1ccc(-c2cc3c(N[C@@H]4CCN(C(=O)C(N)=O)CC4(C)C)c(C(N)=O)cnn3c2)cn1 [Example 55, (R)-4-(1-(2-amino-2-oxoacetyl)-3,3-dimethylpiperidin-4-ylamino)-6-(6-methoxypyridin-3-yl)pyrrolo[1,2-b]pyridazine-3-carboxamide]
9 | 813 | 148 | NC(=O)c1cnn2cc(-c3cncnc3)cc2c1NC1CCOCC1 [Example 32, 6-(5-pyrimidinyl)-4-(tetrahydro-2H-pyran-4-ylamino)pyrrolo[1,2-b]pyridazine-3-carboxamide]
10 | 0.4 | 0.7 | CNC(=O)c1ccc(-c2cc3c(N[C@@H]4C[C@@H]5CN(C(=O)C(C)(C)O)C[C@@H]5[C@H]4C)c(C(N)=O)cnn3c2)cn1 [Example 63, 4-(((3aS,4R,5R,6aS)-2-(2-hydroxy-2-methylpropanoyl)-4-methyloctahydrocyclopenta[c]pyrrol-5-yl)amino)-6-(6-(methylcarbamoyl)-3-pyridinyl)pyrrolo[1,2-b]pyridazine-3-carboxamide]
11 | 8 | 8.9 | COc1ccc(-c2cc3c(N[C@@H]4CN(S(C)(=O)=O)C[C@@H]4OC)c(C(N)=O)cnn3c2)cn1 [Example 315, 4-((3R,4S)-4-methoxy-1-(methylsulfonyl)pyrrolidin-3-ylamino)-6-(6-methoxypyridin-3-yl)pyrrolo[1,2-b]pyridazine-3-carboxamide]
12 | 1.4 | 1.5 | C[C@@H]1[C@H]2CN(C(=O)C(C)(C)O)C[C@H]2C[C@H]1Nc1c(C(N)=O)cnn2cc(-c3cnn(C)c3)cc12 [Example 83, 4-((3aS,4R,5R,6aS)-2-(2-hydroxy-2-methylpropanoyl)-4-methyloctahydrocyclopenta[c]pyrrol-5-ylamino)-6-(1-methyl-1H-pyrazol-4-yl)pyrrolo[1,2-b]pyridazine-3-carboxamide]
13 | 1.2 | 0.3 | CC[C@H]1CN(C(=O)C2(C#N)CCC2)C[C@H]1Nc1c(C(N)=O)cnn2cc(-c3ccnc(Cl)c3)cc12 [Example 257, 6-(2-chloropyridin-4-yl)-4-((3S,4S)-1-(1-cyanocyclobutanecarbonyl)-4-ethylpyrrolidin-3-ylamino)pyrrolo[1,2-b]pyridazine-3-carboxamide]
14 | 7.6 | 5.6 | CC[C@@H]1CN(C(=O)[C@@H](O)CC)CC[C@H]1Nc1c(C(N)=O)cnn2cc(-c3cnn(C)c3)cc12 [Example 127, 4-(((3R,4R)-3-ethyl-1-((S)-2-hydroxybutanoyl)piperidin-4-yl)amino)-6-(1-methyl-1H-pyrazol-4-yl)pyrrolo[1,2-b]pyridazine-3-carboxamide]
15 | 190 | 110 | Cn1nccc1-c1cc2c(NC3CCOCC3)c(C(N)=O)cnn2c1 [Example 30, 6-(1-methyl-1H-pyrazol-5-yl)-4-(tetrahydro-2H-pyran-4-ylamino)pyrrolo[1,2-b]pyridazine-3-carboxamide]
16 | 0.3 | 0.4 | C[C@@H]1[C@H]2CN(C(=O)CO)C[C@H]2C[C@H]1Nc1c(C(N)=O)cnn2cc(-c3ccc(C(N)=O)cc3)cc12 [Example 61, 6-(4-carbamoylphenyl)-4-(((3aS,4R,5R,6aS)-2-glycoloyl-4-methyloctahydrocyclopenta[c]pyrrol-5-yl)amino)pyrrolo[1,2-b]pyridazine-3-carboxamide]
17 | 110 | 40 | N#Cc1ccccc1-c1cc2c(NC3CCOCC3)c(C(N)=O)cnn2c1 [Example 33, 6-(2-cyanophenyl)-4-(tetrahydro-2H-pyran-4-ylamino)pyrrolo[1,2-b]pyridazine-3-carboxamide]
18 | 903 | 285 | CCOC(=O)N1CCC[C@@H](Nc2c(C(N)=O)cnn3cc(-c4ccccc4)cc23)C1 [Example 51, ethyl (3R)-3-((3-carbamoyl-6-phenylpyrrolo[1,2-b]pyridazin-4-yl)amino)-1-piperidinecarboxylate]
